# Data taken from publication PMC11649784, “Re-design and evaluation of diclofenac-based carborane-substituted prodrugs and their anti-cancer potential” (Scientific Reports, 2024).
# System: MC38 cells
# Test: Crystal violet (CV) viability assay, MC38
# Type: cell-based, murine
# Settings: 72 h
# Description: In a preliminary test, the stability of all compounds dissolved in the cell medium (c = 100 μM, T = [drawing 47] ) for 72 h was validated by HPLC (see Supporting Information). Cell lines were incubated with the respective compounds in a concentration range of 1.56–100 μM for 72 h, and cell viability was measured using 3-(4,5-dimethylthiazol-2-yl)-2,5-diphenyltetrazolium bromide (MTT) and crystal violet (CV) assays. […] As MTT tests gave inconsistent results, possibly due to interference of the compound with mitochondrial respiration, for the further evaluation only the CV results are considered[97],[98].
# The biological study was performed on a murine colon adenocarcinoma cell line (MC38), two human colorectal carcinoma cell lines (HCT116 and HT29), and a human fetal lung fibroblast cell line (MRC-5). All cell lines are commercially available and were obtained from the American Type Culture Collection (ATCC). The human cell lines were kept in HEPES-buffered RPMI-1640 medium supplemented with 10 [drawing 141] heat-inactivated FCS, 2 mM L-glutamine, 0.01 [drawing 142] sodium pyruvate, penicillin (100 units mL^−1), and, streptomycin ( [drawing 143] mL^-1). The MC38 cell line was maintained in DMEM medium additionally supplemented with 1 [drawing 144] non-essential amino acids. Cells were grown at [drawing 145] in a humidified atmosphere with 5 [drawing 146] [drawing 147] . Peritoneal exudate cells (PECs) were isolated from healthy C57BL/6 mice (males, n = 3, 3 months old, weight 22–25 g) by performing an ice-cold PBS peritoneal lavage. Mice were sacrificed by cervical dislocation. Cells were cultivated for 4 h when nonadherent population was removed by washing in PBS, and additionally cultivated overnight in HEPES-buffered RPMI-1640 medium supplemented with 5 [drawing 148] heat-inactivated FCS before treatment with experimental drugs. Animal handling and protocol for isolation of PECs were performed according to European Union rules, and the ARRIVE guidelines 2.0.
# For the viability tests, MC38, HCT116, and HT29 cells were seeded in 96-well plates at a density of 2 [drawing 149] 103, 5 [drawing 150] 103, and 6 [drawing 151] 10^3 cells/well, respectively. To determine whether the drug affected the viability of healthy, non-malignant cells, MRC-5 and PECs were seeded in 96-well plates at a density of 8 [drawing 152] 103 and 2 [drawing 153] 10^5 cells/well, respectively. For the flow cytometric analyses, MC38 cells were seeded in 6-well plates at 5 [drawing 154] 10^4 cells/well. For morphological assessment of nuclei and the detection of autophagy, MC38 cells were seeded in 2-well chamber slides at 1.5 [drawing 155] 10^4 cells/well.
# After 72 h, cell viability was determined using MTT and CV tests. First, the supernatant from the wells was discarded and the cells were incubated with an MTT solution (0.5 mg mL^−1). After half an hour, the purple formazan crystals formed were dissolved in DMSO. For CV staining of the cells, the cells were fixed with 4 [drawing 157] PFA for 10 min and then stained with a 0.02 [drawing 158] CV solution for 15 min, all at room temperature (RT). The cells were then washed with tap water, air-dried and the dye was dissolved in 33 [drawing 159] acetic acid. For both viability tests, the absorbance of the developed colors was measured using an automated microplate reader at 570 nm with a reference wavelength of 670 nm. The results were expressed as a percentage of the control values of the untreated cells, which were arbitrarily set at 100 [drawing 160] . IC50 values, defined as 50 [drawing 161] inhibitory concentration, were calculated using a four-parameter logistic function and presented as mean±SD. All biological experiments were performed in triplicates. To evaluate the nature of the detected autophagy, a combined treatment with compound 3 and the autophagy inhibitors chloroquine (Chlq) and 3-methyladenine (3-MA) was carried out. […] After 72 h, cell viability was determined by CV assay.
substance,measurement,setting,value
"1-[2-(7,8-dicarba-nido-undecaborate)]- [drawing 126] H-indolium-2-amine [compound 3]",IC50,"mean±SD, read-out: IC50 [μM] (n = 3) MC38 CV",9.5 ± 0.4 µM
same,cell viability on co-treatment with 3-methyladenine (3-MA),"IC50 concentration of 3 plus 3-MA 1 mM, CV assay",further viability decrease
same,cell viability on co-treatment with chloroquine (Chlq),"IC50 concentration of 3 plus Chlq 20 μM, CV assay",further viability decrease
